The values that follow come from paper PMC9106797, “Formation and Identification of a 5-(Hydroxymethyl)-2-Furfural-Zingerone Condensate and Its Cytotoxicity in Caco-2 Cells” (Frontiers in Nutrition, 2022).

“And” between values parts separate entries of the source, which are not always exact repeats. Equal values may be shown once.

Series [1] in a line: Cell viability assay (CCK-8). As to conditions: human, Caco-2 cells, read-out: IC50, cytotoxicity against Caco-2 cells; for IC50 at 24 h: 24 h incubation; for IC50 at 48 h: 48 h incubation. In kind it is cell-based. The procedure: The Caco-2 cell line (ATCC HTB-37) was obtained from the American Type Culture Collection (Rockville, MD, USA). Cells were cultivated by the method of Kosińska-Cagnazzo et al. ([30]) with slight modifications. Specifically, α-MEM medium supplemented with 10% FBS, 1% penicillin/streptomycin, and 1% NEAA was used to cultivate Caco-2 cells at 37°C and 5% (v/v) CO2 atmosphere. When the cells reached 80–90% confluence, they were detached with 0.25% trypsin-EDTA and further sub-cultured on fresh growth medium. Cells between passages 30 and 35 were used.
Cell viability was measured by the CCK-8 method as described by Zhao et al. ([31]) with modifications. Briefly, Caco-2 cells at a density of 2.5 × 10^4 cells/well were seeded into 96-well plates and maintained at 37°C under a humidified atmosphere containing 5% CO2 and 95% air for 24 h. Subsequently, the origin culture medium was removed, and different concentrations (2, 4, 8, 16, 32, and 64 mM) of HMZ and HMF were added. Three duplicate wells were set for each concentration. The cells were further incubated for 24 and 48 h, respectively. Then, 10 μL of CCK-8 solution was added into each well for 2 h, and the absorbance was read at 450 nm on a microplate reader (Multiskan, Thermo, USA).

The next series concerns Caco-2 cells. Nature of the series: Absorption of HMZ in Caco-2 cells (HPLC of treated solution). In kind it is in vitro ADME. As to conditions: 2 h, 37°C. The procedure: HMZ absorption was evaluated according to de Oliveira et al. with slight modifications ([32]). Briefly, Caco-2 cells were inoculated in 6-well plates at the density of 2 × 10^4 cells/well (2 mL) and cultured until 90% confluence at 37°C with 5% CO2. Then, the cells were washed thrice with 1 mL of HBSS. Another 1 mL of HBSS was added for further culture for 30 min. Ten microliters of HMZ solution (pH 7.4) at concentrations of 1–100 μM were added separately and cultivated for 2 h to allow the adduct solution to be absorbed by cells under certain condition (37°C, 5% CO2/95% air). The treated solution was transferred into Eppendorf tubes for HPLC analysis. The control of each sample under different concentrations was the respective sample without incubation, and each of the absorption rate of the adduct by Caco-2 cells was calculated as follows:
(1) Absorption rate (%) =S1−S2/S1× 100%
where S1 is the peak area of the control, and S2 is the peak area of the sample incubated for 2 h.

Series [2] is described as follows: Effect of reaction temperature on HMZ amount (one-factor-at-a-time, HPLC). In kind it is physicochemical. As to conditions: temperature over 50°C, 3 h. Here is the method: A one-factor-at-a-time design was applied to estimate the effects of different reaction parameters on HMF elimination by ZGR, as well as the adduct formation between HMF and ZGR. ZGR/HMF in the molar ratio of 2: 1 was mixed in a three-necked flask and incubated at 40°C for different durations (0.5, 1.0, 1.5, 2.0, 2.5, and 3.0 h) to investigate the effect of reaction time. ZGR/HMF in the molar ratio of 2: 1 was mixed and reacted for 3 h at different temperature levels (20, 30, 40, 50, 60, and 70°C) to study the effect of temperature. In addition, temperature and reaction duration were kept constant at 40°C and 3 h, respectively, to evaluate the effect of different ZGR/HMF molar ratios (4: 1, 3: 1, 2: 1, 1: 1, and 1: 2). At the end of each reaction, 30 μL of the aqueous reaction mixture was diluted with methanol to a final volume of 500 μL for HPLC analysis. HMF and HMZ were quantified by comparing their peak areas to each standard curve.

The nature of series [3]: In vitro simulated digestion (mouth, gastric, intestinal stages), HPLC. It counts as in vitro ADME. Conditions: for decrease of HMZ content after digestion: 37°C. Here is the method:
The adduct was subjected to in vitro simulated digestion at three stages, namely, the mouth, gastric, and intestinal stages, to evaluate its stability ([28], [29]). Briefly, HMZ (2 mg) was dissolved in DMSO (200 μL), diluted with ultra-pure water to the final concentration of 0.5 mg/mL, and then mixed with 6 mL of SSF in a flask. The mixture was magnetically stirred at 100 r/min for 2 min at 37°C to mimic saliva digestion. Afterward, 10 mL of SGF was added to simulate the gastric phase, and the mixture was reacted for 2 h under the same condition. Subsequently, 20 mL of SIF was added for the simulation of intestinal digestion for another 2 h. Samples (100 μL) were withdrawn at the end of each stage of the digestion process for HPLC analysis. Each digestion process was repeated in triplicate, and the content of HMZ was calculated by referring to the calibration curve.

In the next series the test system is FVB/N mice. Also noted: method as in PMID 22349055. As to conditions: FVB/N mice, 31.25, 62.5, 125 and 250 mg SMF/kg; cited from earlier work.

Take `O=Cc1ccc(CO)o1` [HMF, 5-(Hydroxymethyl)-2-furfural]: in series [1], the half-inhibitory concentration (IC50) (as a rule, the point on the concentration scale where inhibition reaches its midpoint) at 24 h was found to be 35.4 ± 4.03 mM and the concentration for half-maximal inhibition (IC50) at 48 h came out at 19.2 ± 2.1 mM.

As to `COc1cc(CCC(=O)/C=C/c2ccc(CO)o2)ccc1O` [HMZ], the IC50 at 24 h in series [1] came to 41.5 ± 5.33 mM. Further, in series [1], the 50% inhibitory concentration (IC50) at 48 h came to 25.4 ± 3.12 mM. Moreover, the absorption in the series with Caco-2 cells (HMZ 1 μM) is 0.61 ± 0.75 ×10^-5 μmol; in the series on Caco-2 cells (HMZ 4 μM) it was 2.85 ± 0.03 ×10^-5 μmol; in the series with Caco-2 cells (HMZ 20 μM), 11.22 ± 0.03 ×10^-5 μmol; with Caco-2 cells (HMZ 100 μM), 34.71 ± 0.17 ×10^-5 μmol. In addition, the absorption rate in the series on Caco-2 cells (HMZ 1 μM) is 60.74% and 60.74 ± 7.51%; with Caco-2 cells (HMZ 4 μM) it was 71.38% and 71.38 ± 0.80%; in the series with Caco-2 cells (HMZ 20 μM), 56.11% and 56.11 ± 1.85%; in the series on Caco-2 cells (HMZ 100 μM) it was 34.71% and 34.71 ± 1.68%. Besides, in series [2], the “thermal stability in the reaction mixture” value is listed as “appeared to degrade”. Besides, the “decrease of HMZ content after digestion” value in series [3] (after SGF (simulated gastric fluid), further 2 h) is 14.19%; in series [3] (after SIF (simulated intestinal fluid), further 2 h) it was 24.06%; in series [3] (after SSF (simulated salivary fluid), 2 min), 7.14%. Moreover, in series [3] (three digestion conditions), the “stability in simulated in vitro digestion” value is “moderate level”.

`O=Cc1ccc(COS(=O)(=O)O)o1` [SMF, 5-sulfo-oxymethylfurfural]: the liver toxicity result in the series on FVB/N mice is “hepatic lesions”.
